Reference: patent publication US9034866B2 (Genentech, Inc., priority 2012, dated 2015)
Read-outs that look alike come from different tables or passages of the source.

What was measured:
[1] = test system: REL-A (p65) nuclear translocation in HeLa cells; experiment: REL-A nuclear translocation assay (classical NF-kB signaling), high content imaging; type: cell-based; settings: Homo sapiens, compounds 4.5 hours, then 10 ng/mL TNF-α for 30 minutes, read-out: REL-A HeLa Transloc Assay (IC50)
Method: (§1) (2) A second set of cell assay are used to define the selectivity of NIK inhibitors toward inhibition of classical vs. non-classical NF-kB signaling and rely on quantification of the nuclear translocation of p52 (NF-kB2) and REL-A (p65) using high content cellular imaging. For the p52 (non-classical NF-kB signaling) nuclear translocation assay, HeLa cells are treated with different concentrations of compounds (0.2% DMSO final) in medium containing 10% fetal bovine serum and then stimulated with 100 ng/mL, of an anti-lymphotoxin beta receptor antibody (R&D Systems) for 5 hours. In the REL-A nuclear translocation assay, HeLa cells are incubated with compounds (0.2% DMSO final) for 4.5 hours in medium containing 10% fetal bovine serum before stimulating them with 10 ng/mL tumor necrosis factor (TNF)-α (R&D Systems) for 30 minutes. Cells are fixed with 4% paraformaldehyde, permeabilized by adding 0.1% Triton X-100 in phosphate buffered saline, and then are incubated with either 2 ug/mL anti-p52 antibody (Millipore) or 400 ng/mL anti-REL-A (p65) antibody (Santa Cruz Biotechnology). Finally, the cells are incubated with an Alexa488-labeled secondary antibody (Invitrogen) and DRAQ5 DNA stain (Biostatus). Imaging is carried out using an Opera reader (Perkin Elmer) and data are analyzed with the aid of Acapella software (Perkin Elmer). The p52 or REL-A translocation into the nucleus is quantified by the ratio of the nuclear to cytoplasmic signal intensity. […] The compounds in listed in Table 1 have the corresponding inhibitory value (IC50 in micromolar) for NIK p52 Translocation Assay as set forth in Table 2.
The compounds in listed in Table 1 has the corresponding inhibitory value (IC50 in micromolar) for NIK RelA Translocation Assay as set forth in Table 2.

[2] = test system: p52 (NF-kB2) nuclear translocation in HeLa cells; experiment: p52 nuclear translocation assay (non-classical NF-kB signaling), high content imaging; type: cell-based; settings: Homo sapiens, 100 ng/mL anti-lymphotoxin beta receptor antibody for 5 hours, read-out: p52 HeLa Transloc Assay (IC50)
Method: as §1

[3] = molecular target: nuclear factor-kappa B (NF-kB)-inducing kinase (NIK) (Homo sapiens (Human), UniProt Q99558); experiment: NIK Enzyme Inhibition Assay (Transcreener ADP fluorescence polarization); type: biochemical; settings: purified NIK 0.2-1 nM, 10 uM ATP, Morrison's quadratic equation; read-out: NIK ADP-FP (Ki uM)
Sequence of nuclear factor-kappa B (NF-kB)-inducing kinase (NIK) (Q99558 whole entry): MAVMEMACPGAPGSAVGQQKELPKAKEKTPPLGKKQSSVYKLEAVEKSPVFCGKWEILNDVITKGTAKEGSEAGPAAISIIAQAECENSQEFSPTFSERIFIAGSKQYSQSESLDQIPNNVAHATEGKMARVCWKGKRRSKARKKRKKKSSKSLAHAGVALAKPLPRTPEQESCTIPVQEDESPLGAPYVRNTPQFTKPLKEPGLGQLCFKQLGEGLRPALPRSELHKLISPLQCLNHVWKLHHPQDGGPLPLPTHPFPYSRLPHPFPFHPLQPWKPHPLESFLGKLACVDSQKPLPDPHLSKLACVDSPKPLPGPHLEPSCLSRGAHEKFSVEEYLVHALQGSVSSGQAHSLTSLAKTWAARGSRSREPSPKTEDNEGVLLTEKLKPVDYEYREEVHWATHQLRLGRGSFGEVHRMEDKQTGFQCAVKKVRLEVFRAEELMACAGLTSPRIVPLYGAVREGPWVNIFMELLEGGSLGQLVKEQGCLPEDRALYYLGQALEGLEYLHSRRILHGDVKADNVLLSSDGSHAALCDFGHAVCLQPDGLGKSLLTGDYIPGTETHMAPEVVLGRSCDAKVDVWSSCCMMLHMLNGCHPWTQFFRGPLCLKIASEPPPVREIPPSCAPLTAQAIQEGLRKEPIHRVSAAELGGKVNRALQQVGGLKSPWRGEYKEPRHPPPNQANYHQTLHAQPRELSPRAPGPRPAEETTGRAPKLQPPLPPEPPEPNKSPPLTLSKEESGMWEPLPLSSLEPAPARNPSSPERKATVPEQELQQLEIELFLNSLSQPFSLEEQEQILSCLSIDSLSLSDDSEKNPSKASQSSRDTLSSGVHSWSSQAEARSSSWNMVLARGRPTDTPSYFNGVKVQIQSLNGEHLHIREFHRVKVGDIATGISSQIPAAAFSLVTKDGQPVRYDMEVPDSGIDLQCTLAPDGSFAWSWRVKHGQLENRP
How it was run: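 Baculovirus/insect-cell-expressed NIK (0.2-1 nM) incubated with compounds 1-3.5 h at 10 uM ATP. Buffer: 50 mM HEPES pH 7.2, 10 mM MgCl2, 2 mM DTT, 1% DMSO. ADP detected by Transcreener fluorescence polarization (ADP antibody, AlexaFluor 633 tracer) after EDTA quench.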

Row | Structure (SMILES) | IC50 ([1]; HeLa) | Ki [3] | other results
1 | Cc1nc([C@](C)(O)C#Cc2ccc3c(c2)-c2nc(C(N)=O)sc2[C@@H](C)CO3)no1 (racemic) | > 20000 nM | – | –
2 | CC(C)(O)C#Cc1cc2c(cc1F)C1CC(C1)n1c-2nc(C(N)=O)c1C(C)(C)O [Example 248, 9-fluoro-10-(3-hydroxy-3-methyl-but-1-ynyl)-3-(1-hydroxy-1-methyl-ethyl)-5,6,7,12-tetrahydro-5,7-methanobenzo[c]imi-dazo[1,2-a]azepine-2-carboxamide] | – | – | IC50 [2]: 1400 nM; IC50 [1]: > 20000 nM
3 | Cc1nc([C@](C)(O)C#Cc2ccc3c(c2)-c2nc(C(N)=O)c(Cc4ccnn4C)n2C2CC3C2)no1 [Example 260, 10-[(3R)-3-hydroxy-3-(5-methyl-1,2,4-oxadiazol-3-yl)but-1-ynyl]-3-[(2-methyl-pyrazol-3-yl)methyl]-5,6,7,12-tetrahydro-5,7-methanobenzo[c]imidazo[1,2-a]aze-pine-2-carboxamide] | > 20000 nM | – | IC50 ([2]; HeLa, 5 h): 4800 nM
4 | Cc1cc([C@@](C)(O)C#Cc2ccc3c(c2)-n2nc(C(N)=O)cc2[C@H](C)CO3)no1 (racemic) [Example 513] | > 20000 nM | – | –
5 | CN1CCC[C@@](O)(C#Cc2ccc3c(c2)-c2nc(C(N)=O)sc2C(F)(F)CO3)C1=O (racemic) | > 20000 nM | – | IC50 ([2]; HeLa, 5 h): 184 nM
6 | Cc1nc([C@](C)(O)C#Cc2ccc3c(c2)-c2nc(C(N)=O)sc2C2CC3C2)no1 [Example 450, (R)-9-(3-hydroxy-3-(5-methyl-1,2,4-oxa-diazol-3-yl)but-1-yn-1-yl)-5,6-dihydro-4H-4,6-methanobenzo[6,7]cyclo-hepta[1,2-d]thiazole-2-carboxamide] | > 20000 nM | – | IC50 ([2]; HeLa, 5 h): 459 nM
7 | CC(O)(C#Cc1cc2c(cc1F)C1CC(C1)n1cc(C(N)=O)nc1-2)CF (racemic) | – | 0.0031 µM | IC50 ([2]; HeLa, 5 h): 424 nM
8 | CN1CC[C@@](O)(C#Cc2ccc3c(c2)-c2nc(C(N)=O)sc2[C@](O)(CF)CO3)C1=O [Example 465] | > 20000 nM | – | –
9 | CC(C)(O)C#Cc1cc2c(cc1F)OCCn1c-2nc(C(N)=O)c1-c1nc(C2CC2)n[nH]1 | – | 0.002 µM | IC50 ([2]; HeLa, 5 h): 112 nM
10 | Cc1nc([C@](C)(O)C#Cc2ccc3c(c2)-c2nc(C(N)=O)sc2[C@H](F)CO3)no1 [Example 464] | > 20000 nM | – | –
11 | CC(O)(C#Cc1cc2c(cc1F)OCCn1cc(C(N)=O)nc1-2)c1nccs1 (stereo not drawn) [Example 144] | – | – | IC50 ([2]; HeLa, 5 h): 483 nM
12 | Cc1nc([C@](C)(O)C#Cc2cc3c(cc2F)C2CC(C2)n2cc(C(N)=O)nc2-3)no1 | – | 0.003 µM | IC50 ([2]; HeLa, 5 h): 792 nM
13 | Cc1cc([C@](C)(O)C#Cc2cc3c(cc2F)OC[C@@H](N(C)C)c2sc(C(N)=O)nc2-3)no1 [Example 254] | 20000 nM | – | –
14 | CNC(=O)c1c(C(N)=O)nc2n1CCOc1cc(F)c(C#CC(C)(O)COC)cc1-2 (stereo not drawn) [Example 108] | – | – | IC50 [1]: 20000 nM
15 | Cc1cc([C@](C)(O)C#Cc2ccc3c(c2)-c2nc(C(N)=O)c([C@@H](O)c4ccnn4C)n2C2CC3C2)no1 [Example 359] | – | – | IC50 ([2]; HeLa, 5 h): 1200 nM
16 | Cc1cc([C@](C)(O)C#Cc2ccc3c(c2)-c2nc(C(N)=O)c([C@H](O)c4ccnn4C)n2C2CC3C2)no1 | – | – | IC50 ([2]; HeLa, 5 h): 1200 nM
17 | Cc1nc([C@](C)(O)C#Cc2ccc3c(c2)-c2nc(C(N)=O)sc2[C@@](C)(F)CO3)no1 | > 20000 nM | – | –
18 | Cc1cc([C@](C)(O)C#Cc2cc3c(cc2F)OC[C@H](N(C)C)c2sc(C(N)=O)nc2-3)no1 (single isomer, unassigned) [Example 257] | 20000 nM | – | –
19 | Cc1nc([C@](C)(O)C#Cc2ccc3c(c2)-c2nc(C(N)=O)sc2[C@](C)(F)CO3)no1 [Example 469] | > 20000 nM | – | –
20 | Cc1cc([C@@](C)(O)C#Cc2ccc3c(c2)-n2nc(C(N)=O)cc2[C@@H](C)CO3)no1 [Example 519] | > 20000 nM | – | –
21 | Cc1nnc(C(C)(C#Cc2ccc3c(c2)-c2nc(C(N)=O)cn2CCO3)CO)[nH]1 (stereo not drawn) [Example 28, 9-[4-hydroxy-3-methyl-3-(5-methyl-4H-[1,24]triazol-3-yl)-but-1-ynyl]-4,5-di-hydro-6-oxa-1,3a-diaza-benzo[e]azulene-2-carboxylic acid amide] | – | > 5 µM | –
22 | CN1CCCC(NC(=O)c2c(C(N)=O)nc3n2CCOc2cc(F)c(C#CC(C)(C)O)cc2-3)C1 (stereo not drawn) [Example 78] | – | 0.06 µM | –
23 | CN1CC[C@@](O)(C#Cc2ccc3c(c2)-n2nc(C(N)=O)cc2[C@H](F)CO3)C1=O | > 20000 nM | – | –
24 | CN1CCCC(O)(C#Cc2ccc3c(c2)-c2nc(C(N)=O)sc2CCO3)C1=O (stereo not drawn) | – | 0.0029 µM | –

Row | Structure (SMILES) | IC50 ([1]; HeLa) | Ki [3] | other results
25 | CC(C)(O)C#Cc1cc2c(cc1F)OCCn1c-2nc(C(N)=O)c1Cc1ccccc1F [Example 25, 8-fluoro-3-(2-fluoro-benzyl)-9-(3-hydro-xy-3-methyl-but-1-ynyl)-4,5-dihydro-6-oxa-1,3a-diaza-benzol[e]azulene-2-car-boxylic acid amide] | – | 0.012 µM | –
26 | CC(O)(C#Cc1ccc2c(c1)-c1nc(C(N)=O)cn1C1CC2C1)c1ccccn1 (stereo not drawn) | – | 0.0071 µM | –
27 | COCC(C)(O)C#Cc1cc2c(cc1F)OCCn1cc(C(N)=O)nc1-2 (stereo not drawn) | – | 0.068 µM | –
28 | C[C@H]1COc2ccc(C#C[C@]3(O)CCCN(C)C3=O)cc2-c2nc(C(N)=O)sc21 (racemic) [Example 501] | > 20000 nM | – | –
29 | CC(C)(O)C#Cc1ccc2c(c1)-c1nc(C(N)=O)sc1C(N1CCOCC1)CO2 (stereo not drawn) [Example 11, 9-(3-hydroxy-3-methyl-but-1-ynyl)-4-morpholin-4-yl-4,5-dihydro-6-oxa-3-thia-1-aza-benzo[e]azulene-2-carboxylic acid amide] | – | 0.416 µM | –
30 | CNC(=O)c1c(C(N)=O)nc2n1CCOc1cc(F)c(C#CC(C)(O)CF)cc1-2 (stereo not drawn) [Example 109] | – | – | IC50 [2]: 272 nM
31 | CN1CCC(O)(C#Cc2ccc3c(c2)-c2nc(C(N)=O)cn2CCO3)C1=O (stereo not drawn) | – | 0.004 µM | –
32 | Cc1nc([C@](C)(O)C#Cc2ccc3c(c2)-c2nc(C(N)=O)cn2C2CC3C2)no1 | – | 0.003 µM | –
33 | Cc1nc([C@](C)(O)C#Cc2ccc3c(c2)-c2nc(C(N)=O)sc2[C@@H](F)CO3)no1 | > 20000 nM | – | –
34 | CC(C)(O)C#Cc1ccc2c(c1)-c1nc(C(N)=O)c(-c3cc[nH]n3)n1CCO2 [Example 110] | – | 0.023 µM | –
35 | CC(O)(C#Cc1cc2c(cc1F)OCCn1cc(C(N)=O)nc1-2)c1ncccc1F (stereo not drawn) [Example 252] | – | 0.025 µM | –
36 | C[C@@](O)(C#Cc1ccc2c(c1)-n1nc(C(N)=O)cc1C(F)(F)CO2)c1cccnn1 | – | 1.6 µM | –
37 | CNC(=O)c1c(C(N)=O)nc2n1C1CC(C1)c1cc(F)c(C#C[C@@](C)(O)c3cc(C)on3)cc1-2 | – | 0.008 µM | IC50 ([2]; HeLa, 5 h): 683 nM
38 | NC(=O)c1cc2n(n1)-c1cc(C#CC3(O)CCCC3)ccc1OCC21COC1 [Example 715, 9-((1-hydroxycyclopentyl)ethynyl)-5H-spiro[benzo[b]pyrazolo[1,5-d][1,4]oxa-zepine-4,3′-oxetane]-2-carboxamide] | – | 0.1 µM | –
39 | CC(C)(O)C#Cc1ccc2c(c1)-c1nc(C(N)=O)sc1CCO2 [Example 3, 9-(3-hydroxy-3-methyl-but-1-ynyl)-4,5-dihydro-6-oxa-3-thia-1-aza-benzo[e]azu-lene-2-carboxylic acid amide] | – | 0.033 µM | –
40 | Cn1cc([C@H](O)c2c(C(N)=O)nc3n2CCOc2cc(F)c(C#CC(C)(C)O)cc2-3)cn1 | – | 0.033 µM | –
41 | C[C@@H]1COc2ccc(C#C[C@]3(O)CCCN(C)C3=O)cc2-c2nc(C(N)=O)sc21 [Example 493, 10-[2-[(3R)-3-hydroxy-1-methyl-2-oxo-pyrrolidin-3-yl]ethynyl]-N3-methyl-5,6,7,12-tetrahydro-5,7-methanobenzo[c]imidazo[1,2-a]azepine-2,3-dicarboxamide] | > 20000 nM | – | –
42 | CNC(=O)c1c(C(N)=O)nc2n1CCOc1ccc(C#CC(C)(O)CO)cc1-2 (racemic) | – | 0.003 µM | –
43 | CC(O)C(C)(O)C#Cc1cc2c(cc1F)OCCn1cc(C(N)=O)nc1-2 (stereo not drawn) [Example 142] | – | 0.142 µM | –
44 | CC(C)(O)C#Cc1cc2c(cc1F)OCCn1c-2nc(C(N)=O)c1C(O)c1cc(F)cc(F)c1 (racemic) [Example 161] | – | 0.0072 µM | –
45 | CC(C)(O)C#Cc1cc2c(cc1F)OCCn1c-2nc(C(N)=O)c1-c1nc(C2CC2)no1 (racemic) [Example 188] | – | 0.19 µM | –
46 | CC(C)(O)C#Cc1cc2c(cc1F)OCCn1c-2nc(C(N)=O)c1C(O)c1cccc(C(F)(F)F)c1 (stereo not drawn) | – | 0.019 µM | IC50 ([2]; HeLa, 5 h): 344 nM
47 | CC(C)(O)C#Cc1ccc2c(c1)-c1nc(C(N)=O)c(CNC3COC3)n1CCO2 | – | 0.00054 µM | –
48 | CC(C)(O)C#Cc1cc2c(cc1F)C1CC(C1)n1c-2nc(C(N)=O)c1Cc1ccccc1Cl (racemic) | – | 0.0021 µM | –
